Measured values reported in ChEMBL document CHEMBL1134177, “Non-peptidic, non-prenylic inhibitors of the prenyl protein-specific protease Rce1” (Bioorg Med Chem Lett, 2001).

Columns and labels:
[1] = molecular target: T1, CAAX prenyl protease 2 (Homo sapiens) (UniProt Q9Y256); test: Inhibition of recombinant prenyl protein-specific protease Rce1 in Sf9 cells at a concentration of 10 uM
T1 sequence (whole entry): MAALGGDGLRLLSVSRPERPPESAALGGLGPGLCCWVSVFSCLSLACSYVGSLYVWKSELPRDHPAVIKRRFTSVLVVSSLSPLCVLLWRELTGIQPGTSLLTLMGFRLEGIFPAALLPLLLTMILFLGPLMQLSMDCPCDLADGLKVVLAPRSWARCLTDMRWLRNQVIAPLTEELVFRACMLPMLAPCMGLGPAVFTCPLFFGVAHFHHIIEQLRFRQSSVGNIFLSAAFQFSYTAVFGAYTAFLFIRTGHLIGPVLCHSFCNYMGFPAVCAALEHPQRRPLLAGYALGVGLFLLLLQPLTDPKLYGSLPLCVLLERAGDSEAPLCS

[2] = molecular target: Protein farnesyltransferase (Homo sapiens, UniProt P49354+P49356); test: Inhibitory activity against Farnesyltransferase; assay type: protein-complex assay
[3] = molecular target: T2, CAAX prenyl protease 2 (Homo sapiens, UniProt Q9Y256); test: Inhibition of recombinant prenyl protein-specific protease Rce1 expressed in Sf9 cells […]
T2 sequence (Q9Y256 whole entry): T1 sequence (whole entry)

[4] = molecular target: T2, CAAX prenyl protease 2; test: Inhibition of recombinant prenyl protein-specific protease Rcel expressed in Sf9 cells

Structure (SMILES) | inhibition [1] [%] | also measured
CCCCCCCCCCCCCCC(=O)NCCCC(=O)Nc1cccc(S(=O)(=O)Nc2cccc(C)c2C)c1 | 21 | 
CCCCCCCCCCCCCCCC(=O)NCCC(=O)Nc1cccc(S(=O)(=O)NCCc2c[nH]c3ccccc23)c1 | 23 | 
CCCCCCCCCCCCCCCCCC(=O)NCCC(=O)Nc1cccc(S(=O)(=O)Nc2cccc(C)c2C)c1 | < 5 | IC50 [2]: 2.5 µM
CCCCCCCCCCCCCCCC(=O)NCCC(=O)Nc1cccc(S(=O)(=O)NCc2cccc3ccccc23)c1 | 20 | 
CCCCCCCCCCCCCCCC(=O)NCCC(=O)Nc1ccc(C(=O)N[C@@H](CCSC)C(=O)OC)cc1 | 15 | 
CCCCCCCCCCCCCCCC(=O)N(C)CCC(=O)Nc1cccc(S(=O)(=O)Nc2cccc(C)c2C)c1 | 22 | 
CCCCCCCCCCCCCCCC(=O)NCC(=O)Nc1ccc(C(=O)N[C@@H](CCSC)C(=O)OC)cc1 | 22 | 
CCCCCCCCCCCCCCCCC(=O)NCC(=O)Nc1cccc(S(=O)(=O)Nc2cccc(C)c2C)c1 |  | IC50 [2]: 3.5 µM; IC50 [3]: 7 µM
CCCCCCCCCCCCCC(=O)NCCC(=O)Nc1cccc(S(=O)(=O)Nc2cccc(C)c2C)c1 | < 5 | 
Cc1cccc(NS(=O)(=O)c2cccc(NC(=O)CCNC(=O)/C=C/c3ccc(-c4ccccc4)cc3)c2)c1C |  | IC50 [2]: 3.4 µM; IC50 [3]: 7 µM
CCCCCCCC/C=C\CCCCCCCC(=O)NCCC(=O)Nc1cccc(S(=O)(=O)Nc2cccc(C)c2C)c1 | < 5 | 
CCCCCCCCCCCCCCCC(=O)NCCC(=O)Nc1cccc(S(=O)(=O)Nc2cccc3ccccc23)c1 | < 5 | 
CCCCCCCCCCCCCCCC(=O)NCCC(=O)Nc1ccc(S(=O)(=O)N[C@@H](CCSC)C(=O)OC)cc1 | 28 | 
CCCCCCCCCCCCCCCC(=O)NCCC(=O)Nc1cccc(C(=O)Nc2cccc(C)c2C)c1 | 11 | 
CCCCCCCCCCCCCCCC(=O)NCCC(=O)Nc1cccc(S(=O)(=O)Nc2cccc(C)c2C)c1 | 18 | 
CCCCC/C=C\C/C=C\CCCCCCCC(=O)NCCC(=O)Nc1cccc(S(=O)(=O)Nc2cccc(C)c2C)c1 |  | IC50 [2]: 3.8 µM; IC50 [4]: 14 µM
